System: Bmi-1
Experiment: Sandwich ELISA Assay (Bmi-1 ELISA in HT-1080 cells)
Assay type: cell-based, human
Description: Cell Seeding and Compound Treatment (Day 1):
HT-1080 cells were seeded at 8000 cells/well (50 uL) in 96-well tissue culture plates. After the cells become adherent (3-4 hours), 2× diluted stocks of compounds in 50 uL DMEM containing 1% DMSO (final DMSO concentration was 0.5%) were added and the plates were incubated at 37° C. under 5% CO2 for 40-48 hours
ELISA Plate First Antibody Preparation (Day 2):
The First Antibody (Millipore Mouse, monoclonal to mouse Bmi-1, clone F6, catalog #05-637) diluted to 2 ug/mL in PBS was added (100 uL) to each well of a Nunc MaxiSorp 96-well ELISA plate. The plate was covered with a plate seal and allowed to stand overnight.
Cell Lysate Preparation (Day 3):
Fresh 1× Lysis buffer was prepared on the day of the assay as follows: 1 mM EDTA, 150 mM NaCl, 0.5% Triton-X 100, 10 mM NaF, 20 mM B-Glycerophosphate, 1 mM DTT (in PBS, pH 7.2-7.4) and 1×HALT protease inhibitor cocktail (Pierce #78410).
1× Lysis Buffer (40 uL) was added to each well and the plate was shaken for 5-10 minutes on an orbital shaker to allow cell lysis, then Diluent (1% BSA in PBS in 0.5% NP40) (100 uL) was added to each well.
The Bmi-1 standard curve was prepared in Diluent at the following concentrations of protein: 8000, 4000, 2000, 1000, 500, 250, 125, 0 pg/mL The Bmi-1 Recombinant Protein Standard (Novus Biologicals PCGF4 Recombinant Protein (P01), catalog #H00000648-P01) used in the standard curve was stored at −80° C., and on first thaw, diluted to 10 ug/uL in Blocking Buffer (1% BSA in PBS; BSA: Fisher Scientific Catalog #1600-100) before being aliquoted and refrozen at −80° C. Aliquots can be kept at 4° C. and reused after first thaw, but only for 1-2 weeks. The Bmi-1 Recombinant Protein Standard contains a GST-fusion tag and thus will show up on western blots around 70 Kda.
The prepared ELISA plate was washed 3× with Wash Buffer (0.05% Tween-20 in PBS). The final wash was removed from the plate and the plate was blotted dry on paper towels. Blocking Buffer (300 uL) (1% BSA in PBS) was added per well. The plate was covered with a plate seal and incubated at room temperature for 1 hour. The blocked plate was washed 3× with Wash Buffer, the final wash was removed and the plate was blotted dry on paper towels. The previously prepared samples and standards were added (at 100 uL/well) and the plate was covered with a plate seal and incubated at 4° C. overnight.
The prepared ELISA plate was removed from 4° C., incubated at room temperature for 30 minutes, then washed and blotted dry as previously described for Day 3. The Second Antibody (Cell Signaling Rabbit anti-Bmi-1, Cat#2830) diluted to 1:600 in Blocking Buffer was added (100 uL) to each well, except as needed for background control wells. The plate was covered with a plate seal and incubated for 1.5 hrs at room temperature.
The ELISA plate was washed and blotted dry as previously described. The Third Antibody (Cell Signaling HRP conjugated anti-rabbit IgG (CellSignaling, Cat#:7074) diluted to 1:300 in Blocking Buffer was added (100 uL) to each well, except as needed for background control wells. The plate was incubated for 1 hr at room temperature.
The plate was washed and blotted dry as previously described, then prepared TMB substrate (TMB substrate kit, Pierce catalog #34021) (prepared by mixing kit reagents 1:1) (100 uL) was added per well. The plate was incubated for 20-30 minutes at room temperature in the dark, then Stop Solution (2 M sulfuric acid in water) (50 uL) was added per well. The plates were read at OD450 (experimental) and OD570 (reference).

Row | Structure (SMILES) | IC50
1 | Cc1nc2ncccn2c1-c1csc(N(C)c2ccc3c(c2)OCO3)n1 [Cpd 40, N-(1,3-benzodioxol-5-yl)-N-methyl-4-(2-methylimidazo[1,2-a]pyrimidin-3-yl)-1,3-thiazol-2-amine] | < 500 nM
2 | Fc1cccc(Nc2nccc(-c3cnc4ncccn34)n2)c1 [Cpd 267, N-(3-fluorophenyl)-4-(imidazo[1,2-a]pyrimidin-3-yl)pyrimidin-2-amine] | < 500 nM
3 | Clc1ccc2ncc(-c3csc(Nc4c(Br)cc(Br)cc4Br)n3)n2c1 [Cpd 135, 4-(6-chloroimidazo[1,2-a]pyridin-3-yl)-N-(2,4,6-tribromophenyl)-1,3-thiazol-2-amine] | < 500 nM
4 | COc1cc(C)c(Nc2nccc(-c3c(C)nc4ccccn34)n2)c(C)c1 [Cpd 141, N-(4-methoxy-2,6-dimethylphenyl)-4-(2-methylimidazo[1,2-a]pyridin-3-yl)pyrimidin-2-amine] | < 500 nM
5 | Cc1ccc2nc(C)c(-c3csc(Nc4ccc(Br)cc4)n3)n2c1 [Cpd 77, N-(4-bromophenyl)-4-(2,6-dimethylimidazo[1,2-a]pyridin-3-yl)-1,3-thiazol-2-amine] | < 500 nM
6 | COCCOc1cc(Br)c(Nc2nc(-c3c(C)nc4ncccn34)cs2)c(Br)c1 [Cpd 23, N-(2,6-dibromo-4-(2-methoxyethoxy)phenyl)-4-(2-methylimidazo[1,2-a]pyrimidin-3-yl)thiazol-2-amine] | 1000 to 3000 nM
7 | Cc1ccc(Nc2nc(-c3c(C)nc4c(Br)cccn34)cs2)cc1 [Cpd 229, 4-(8-bromo-2-methylimidazo[1,2-a]pyridin-3-yl)-N-(4-methylphenyl)-1,3-thiazol-2-amine] | < 500 nM
8 | CCOc1ccc(Nc2nccc(-c3cnc4ncccn34)n2)cc1 [Cpd 262, N-(4-ethoxyphenyl)-4-(imidazo[1,2-a]pyrimidin-3-yl)pyrimidin-2-amine] | < 500 nM
9 | Cc1nc2c(Cl)cc(Cl)cn2c1-c1csc(Nc2ccc3c(c2)OCO3)n1 [Cpd 220, N-(1,3-benzodioxol-5-yl)-4-(6,8-dichloro-2-methylimidazo[1,2-a]pyridin-3-yl)-1,3-thiazol-2-amine] | < 500 nM
10 | Cc1nc2ccc(Cl)cn2c1-c1csc(Nc2ccc(Cl)cc2)n1 [Cpd 60, 4-(6-chloro-2-methylimidazo[1,2-a]pyridin-3-yl)-N-(4-chlorophenyl)-1,3-thiazol-2-amine] | < 500 nM
11 | Cc1nc2ccc(F)cn2c1-c1csc(Nc2ccc(Cl)cc2)n1 [Cpd 161, N-(4-chlorophenyl)-4-(6-fluoro-2-methylimidazo[1,2-a]pyridin-3-yl)-1,3-thiazol-2-amine] | < 500 nM
12 | Cc1ccc(Nc2nc(-c3c(C)nc4ncccn34)cs2)cc1 [Cpd 85, 4-(2-methylimidazo[1,2-a]pyrimidin-3-yl)-N-(4-methylphenyl)-1,3-thiazol-2-amine] | < 500 nM
13 | CC(=O)c1ccc(Nc2nc(-c3c(C)nc4cc(Cl)ccn34)cs2)cc1 [Cpd 244, 1-(4-{[4-(7-chloro-2-methylimidazo[1,2-a]pyridin-3-yl)-1,3-thiazol-2-yl]amino}phenyl)ethanone] | < 500 nM
14 | CCCc1nc2ccccn2c1-c1csc(Nc2ccc(OC)c(F)c2)n1 [Cpd 171, N-(3-fluoro-4-methoxyphenyl)-4-(2-propylimidazo[1,2-a]pyridin-3-yl)-1,3-thiazol-2-amine] | < 500 nM
15 | Cc1nc2ccccn2c1-c1csc(Nc2ccc(F)cc2F)n1 [Cpd 203, N-(2,4-difluorophenyl)-4-(2-methylimidazo[1,2-a]pyridin-3-yl)-1,3-thiazol-2-amine] | < 500 nM

Further lines, results first:

Row | IC50 | Structure (SMILES)
16 | < 500 nM | Cc1nc2ccc(Cl)cn2c1-c1csc(Nc2ccccc2)n1 [Cpd 133, 4-(6-chloro-2-methylimidazo[1,2-a]pyridin-3-yl)-N-phenyl-1,3-thiazol-2-amine]
17 | < 500 nM | COc1ccc(Nc2nc(-c3cnc4ccc(Cl)cn34)cs2)cc1F [Cpd 110, 4-(6-chloroimidazo[1,2-a]pyridin-3-yl)-N-(3-fluoro-4-methoxyphenyl)-1,3-thiazol-2-amine]
18 | < 500 nM | CC(=O)c1ccc(Nc2nccc(-c3cnc4ccccn34)n2)cc1 [Cpd 250, 1-(4-{[4-(imidazo[1,2-a]pyridin-3-yl)pyrimidin-2-yl]amino}phenyl)ethanone]
19 | < 500 nM | CCc1nc2ncccn2c1-c1csc(Nc2ccc(I)cc2)n1 [Cpd 149, 4-(2-ethylimidazo[1,2-a]pyrimidin-3-yl)-N-(4-iodophenyl)-1,3-thiazol-2-amine]
20 | < 500 nM | Fc1ccccc1Nc1nccc(-c2cnc3ccccn23)n1 [Cpd 166, N-(2-fluorophenyl)-4-(imidazo[1,2-a]pyridin-3-yl)pyrimidin-2-amine]
21 | < 500 nM | CCc1nc2ncccn2c1-c1csc(Nc2c(Br)cc(OC)cc2Br)n1 [Cpd 146, N-(2,6-dibromo-4-methoxyphenyl)-4-(2-ethylimidazo[1,2-a]pyrimidin-3-yl)-1,3-thiazol-2-amine]
22 | < 500 nM | CCc1ccc(Nc2nc(-c3c(C)nc4ccc(Cl)cn34)cs2)cc1 [Cpd 90, 4-(6-chloro-2-methylimidazo[1,2-a]pyridin-3-yl)-N-(4-ethylphenyl)-1,3-thiazol-2-amine]
23 | < 500 nM | Cc1nc2ncccn2c1-c1ccnc(Nc2ccc3c(c2)OCO3)n1 [Cpd 124, N-(1,3-benzodioxol-5-yl)-4-(2-methylimidazo[1,2-a]pyrimidin-3-yl)pyrimidin-2-amine]
24 | < 500 nM | CCOc1ccc(Nc2nc(-c3c(C)nc4ccc(F)cn34)cs2)cc1 [Cpd 163, N-(4-ethoxyphenyl)-4-(6-fluoro-2-methylimidazo[1,2-a]pyridin-3-yl)-1,3-thiazol-2-amine]
25 | < 500 nM | COc1cccc(Nc2nc(-c3c(C)nc4ccc(F)cn34)cs2)c1 [Cpd 236, 4-(6-fluoro-2-methylimidazo[1,2-a]pyridin-3-yl)-N-(3-methoxyphenyl)-1,3-thiazol-2-amine]
26 | < 500 nM | Cc1nc2ccccn2c1-c1csc(Nc2ccc(Cl)c(Cl)c2)n1 [Cpd 198, N-(3,4-dichlorophenyl)-4-(2-methylimidazo[1,2-a]pyridin-3-yl)-1,3-thiazol-2-amine]
27 | < 500 nM | COc1ccc(Nc2nc(-c3c(C)nc4cc(C)ccn34)cs2)cc1Cl [Cpd 67, N-(3-chloro-4-methoxyphenyl)-4-(2,7-dimethylimidazo[1,2-a]pyridin-3-yl)-1,3-thiazol-2-amine]
28 | < 500 nM | Cc1ccc2nc(C)c(-c3csc(Nc4ccc(I)cc4)n3)n2c1 [Cpd 76, 4-(2,6-dimethylimidazo[1,2-a]pyridin-3-yl)-N-(4-iodophenyl)-1,3-thiazol-2-amine]
29 | < 500 nM | CCCc1nc2ncccn2c1-c1csc(Nc2ccc(OC)cc2)n1 [Cpd 186, N-(4-methoxyphenyl)-4-(2-propylimidazo[1,2-a]pyrimidin-3-yl)-1,3-thiazol-2-amine]
30 | < 500 nM | Brc1ccc(Nc2nccc(-c3cnc4ncccn34)n2)cc1 [Cpd 270, N-(4-bromophenyl)-4-(imidazo[1,2-a]pyrimidin-3-yl)pyrimidin-2-amine]
31 | < 500 nM | Cc1nc2ccc(Cl)cn2c1-c1csc(Nc2cccc(Br)c2)n1 [Cpd 212, N-(3-bromophenyl)-4-(6-chloro-2-methylimidazo[1,2-a]pyridin-3-yl)-1,3-thiazol-2-amine]
32 | < 500 nM | c1cnc2ncc(-c3ccnc(Nc4ccc5c(c4)OCO5)n3)n2c1 [Cpd 259, N-(1,3-benzodioxol-5-yl)-4-(imidazo[1,2-a]pyrimidin-3-yl)pyrimidin-2-amine]
33 | < 500 nM | Cc1nc2ccccn2c1-c1ccnc(Nc2ccc(I)cc2)n1 [Cpd 119, N-(4-iodophenyl)-4-(2-methylimidazo[1,2-a]pyridin-3-yl)pyrimidin-2-amine]
34 | < 500 nM | Cc1nc2ccccn2c1-c1csc(Nc2ccc(N(C)C)cc2)n1 [Cpd 41, N,N-dimethyl-N′-[4-(2-methylimidazo[1,2-a]pyridin-3-yl)-1,3-thiazol-2-yl]benzene-1,4-diamine]

From patent US8680113B2, “BMI-1 protein expression modulators” (PTC Therapeutics, Inc., priority 2008, dated 2014)
